Measurements reported in patent publication US20040192625A1, “Adrenergic receptor overexpression in airway tissues for the treatment of airway obstructive diseases” (priority 2000, published 2004).
Several values for one entry are separate records, joined by “and”; a condition that tells them apart may be missing. Equal values may be shown once. Entries after “also recorded” stand apart in the source; their conditions may differ.

Columns and labels:
[1] = test system: airway responsiveness in conscious, unrestrained mice; assay: In vivo airway responsiveness to methacholine by whole body plethysmography (Penh); parameters: species or system mouse; details: for maximal Penh (bronchoconstriction induced by methacholine): no pretreatment; for maximal Penh to methacholine after albuterol pretreatment: aerosolized albuterol 0.1 mg/ml for 20 min
Experimental: FIG. 9. In vivo measurement of airway hyperreactivity in conscious, unrestrained mice. Airway responsiveness to methacholine was assessed using a rodent whole body plethysmography system to measure Penh (see EXPERIMENTAL PROCEDURES). The mice were first treated with aerosolized PBS to establish baseline function, which was then followed by increasing doses of aerosolized methacholine. On a separate day, the same mice were first pretreated with aerosolized albuterol (0.1 mg/ml) for 20 min. Penh values are reported as percent of the PBS (baseline) value. Bronchoconstriction was greatest in the untreated, NTG control mice (n=12) with a maximal increase in Penh of 558±42%. Pretreatment with albuterol lowered the maximal increase in Penh to 373±33% (p<0.02). The maximum Penh achieved in the transgenic mice (250±26%, n=9) was less than that of both the untreated (p<0.001) and the pretreated NTG mice (p<0.02).
In Vivo Airway Physiology. Airway responsiveness to methacholine was measured noninvasively in conscious, unrestrained mice using a whole body plethysmograph (Buxco Electronics, Troy N.Y.) (28). Using this system, the volume changes that occur during a normal respiratory cycle are recorded as the pressure difference between the animal-containing chamber and a reference chamber. The resulting signal is used to calculate respiratory frequency, minute volume, tidal volume, and enhanced pause (Penh). Penh is a unitless value that is a function of the peak inspiratory (PIP) and peak expiratory (PEP) pressures and the timing of expiration and is calculated as: […]
where Pause is the ratio of time spent in the last third of expiration relative to early expiration. […] Mice were placed in the chamber and allowed to adjust to their surroundings for 10 min. They were then exposed to aerosolized PBS (to establish baseline), followed by increasing concentrations of methacholine (2.5 to 80 mg/ml). Aerosolization was for 3 min and respiratory measurements were recorded and averaged for the subsequent 5 min after each dose. The degree of bronchoconstriction was expressed as the percent change in Penh relative to the PBS baseline. On a separate day, the mice were submitted to the same protocol except that they were first treated with aerosolized albuterol (0.1 mg/ml) for 20 min. The concentration-response data for each individual mouse were fit to a sigmoid curve by an iterative least squares technique, and the dose of methacholine required to double baseline Penh (ED200) was derived.

[2] = biological target: stimulatory guanine nucleotide binding protein (Gs) (mouse) (UniProt P63094); assay: cell-based or functional assay
tracheal rings = assay: Ex vivo tracheal ring contractility / relaxation (organ bath)
β2AR [3] = details: membranes from nontransgenic cells, absence of GTP
Experimental: Radioligand Binding and cAMP Studies. To prepare membranes from lung tissue, lungs from an individual mouse were homogenized with a Polytron (Brinkman) in 10 ml of hypotonic lysis buffer (5 mM Tris, pH 7.4, 2 mM EDTA) containing the protease inhibitors leupeptin, aprotinin, benzamidine and soybean trypsin inhibitor (10 μg/ml each). Detached smooth muscle cells from primary cultures were processed similarly. Homogenates were centrifuged at 40,000×g for 10 min at 4° C. […] Competition data were fit to a two-site model when this fit was statistically (p<0.05) better than a one-site fit by F-test, using Prizm software (GraphPad, San Diego Calif.). Receptor density on the cell surface was assessed using methods previously described (24). […] After trypsin activity was neutralized by the addition of FCS, the cells were washed with PBS and resuspended in DMEM. […] Bound radioactivity was separated by filtration and washing over GF/C glass fiber filters. Cyclic AMP content of attached mouse smooth muscle cells in culture exposed to 10 µM isoproterenol or carrier for 10 min was measured by an acetylated radioimmunoassay method as described (19). Adenylyl cyclase activity was measured in membranes prepared as above using column chromatography as previously described (25).

adenylyl cyclase = assay: Adenylyl cyclase activity in tracheal smooth muscle cell membranes; format: biochemical, mouse; details: for maximal isoproterenol stimulated adenylyl cyclase activity: 10 μM isoproterenol, n=4
Experimental: (§1) FIG. 7. cAMP production and adenylyl cyclase activity in isolated tracheal smooth muscle cells. […] Results are from four independent experiments. (B) Adenylyl cyclase activity was measured in membranes prepared from tracheal smooth muscle cells of transgenic and nontransgenic mice. Reactions were carried out in the presence of the indicated concentrations of isoproterenol for 10 min at 37° C. Detection of [^32P]cAMP produced was determined by column chromatography. Shown is a representative dose response curve.
Radioligand Binding and cAMP Studies. To prepare membranes from lung tissue, lungs from an individual mouse were homogenized with a Polytron (Brinkman) in 10 ml of hypotonic lysis buffer (5 mM Tris, pH 7.4, 2 mM EDTA) containing the protease inhibitors leupeptin, aprotinin, benzamidine and soybean trypsin inhibitor (10 μg/ml each). Detached smooth muscle cells from primary cultures were processed similarly. Homogenates were centrifuged at 40,000×g for 10 min at 4° C. […] Competition data were fit to a two-site model when this fit was statistically (p<0.05) better than a one-site fit by F-test, using Prizm software (GraphPad, San Diego Calif.). Receptor density on the cell surface was assessed using methods previously described (24). […] After trypsin activity was neutralized by the addition of FCS, the cells were washed with PBS and resuspended in DMEM. […] Binding to receptors localized throughout the cell was defined as that displaced by propranolol, while cell surface binding was defined as that displaced by CGP12177 (24). Bound radioactivity was separated by filtration and washing over GF/C glass fiber filters. Cyclic AMP content of attached mouse smooth muscle cells in culture exposed to 10 µM isoproterenol or carrier for 10 min was measured by an acetylated radioimmunoassay method as described (19). Adenylyl cyclase activity was measured in membranes prepared as above using column chromatography as previously described (25).

β2AR [4] = biological target: β2AR (Mus musculus, UniProt P18762)
Experimental: as §1
Radioligand Binding and cAMP Studies. To prepare membranes from lung tissue, lungs from an individual mouse were homogenized with a Polytron (Brinkman) in 10 ml of hypotonic lysis buffer (5 mM Tris, pH 7.4, 2 mM EDTA) containing the protease inhibitors leupeptin, aprotinin, benzamidine and soybean trypsin inhibitor (10 μg/ml each). […] Receptor density on the cell surface was assessed using methods previously described (24). […] Bound radioactivity was separated by filtration and washing over GF/C glass fiber filters. Cyclic AMP content of attached mouse smooth muscle cells in culture exposed to 10 µM isoproterenol or carrier for 10 min was measured by an acetylated radioimmunoassay method as described (19). Adenylyl cyclase activity was measured in membranes prepared as above using column chromatography as previously described (25).

Chain of β2AR (Mus musculus, UniProt P18762) (P18762 whole entry): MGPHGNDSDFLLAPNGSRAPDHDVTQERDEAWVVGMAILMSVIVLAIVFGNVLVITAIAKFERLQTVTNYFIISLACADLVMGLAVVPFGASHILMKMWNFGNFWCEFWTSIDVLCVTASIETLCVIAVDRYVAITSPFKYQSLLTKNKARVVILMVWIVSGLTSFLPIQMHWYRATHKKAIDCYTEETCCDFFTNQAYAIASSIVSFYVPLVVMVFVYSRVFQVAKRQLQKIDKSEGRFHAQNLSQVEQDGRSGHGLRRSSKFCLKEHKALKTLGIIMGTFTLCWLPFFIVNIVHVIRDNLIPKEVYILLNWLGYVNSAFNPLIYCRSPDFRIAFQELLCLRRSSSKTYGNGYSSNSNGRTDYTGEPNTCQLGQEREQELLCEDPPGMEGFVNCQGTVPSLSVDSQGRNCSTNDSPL
Chain of stimulatory guanine nucleotide binding protein (Gs) (mouse) (P63094 2-394): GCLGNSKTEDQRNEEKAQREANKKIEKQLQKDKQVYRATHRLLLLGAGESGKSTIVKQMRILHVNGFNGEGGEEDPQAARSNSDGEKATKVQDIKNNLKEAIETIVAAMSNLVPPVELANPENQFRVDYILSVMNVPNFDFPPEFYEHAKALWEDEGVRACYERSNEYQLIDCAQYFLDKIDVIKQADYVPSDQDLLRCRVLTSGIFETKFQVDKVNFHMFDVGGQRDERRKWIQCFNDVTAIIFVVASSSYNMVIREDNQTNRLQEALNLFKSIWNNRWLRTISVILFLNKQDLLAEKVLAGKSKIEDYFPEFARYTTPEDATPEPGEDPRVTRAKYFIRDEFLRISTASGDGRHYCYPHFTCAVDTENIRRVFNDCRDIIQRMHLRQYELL

Compound: CC(=O)OC(C)C[N+](C)(C)C (stereo not drawn) [methacholine]
- maximal Penh (bronchoconstriction induced by methacholine) ([1]; SMP8-β2AR transgenic mice, n=9): 250±26 % of baseline
- ED200 (dose of methacholine required to double baseline Penh) ([1]; SMP-β2AR mice): 35.7 ± 10.6 mg/mL
- ED200 (dose of methacholine required to double baseline Penh) ([1]; nontransgenic mice): 12.1 ± 1.90 mg/mL
- maximal Penh (bronchoconstriction induced by methacholine) ([1]; nontransgenic mice, n=12): 558±42 % of baseline

Compound: endogenous β-adrenergic receptor of tracheal smooth muscle cells from nontransgenic mice (from UniProt P18762 1-418)
- proportion of receptors in the high affinity state (% RH), isoproterenol competition of [125I]CYP binding in the absence of GTP [2]: 36%

Compound: Cc1ccc(OCC(O)C(C)NC(C)C)c2c1CCC2 (stereo not drawn) [ICI 118,551]
- effect on enhanced isoproterenol-induced relaxation in SMP8-β2AR mice (tracheal rings; pretreatment 0.1 μM): blocked; also recorded: abolished

Compound: CC(C)NCC(O)c1ccc(O)c(O)c1 (stereo not drawn) [isoproterenol]
- maximal extent of relaxation, transgenic vs nontransgenic rings (tracheal rings; isoproterenol, rings pre-constricted with 10 μM acetylcholine): equivalent
- proportion of receptors in the high affinity state (% RH) (β2AR [3]): 36±6.7%
- percent isoproterenol stimulation of adenylyl cyclase over basal (adenylyl cyclase; nontransgenic membranes): ~46%
- maximal isoproterenol stimulated adenylyl cyclase activity (adenylyl cyclase; nontransgenic membranes): 251 ± 7.3 pmol/min/mg
- percent isoproterenol stimulation of adenylyl cyclase over basal (adenylyl cyclase; transgenic membranes): ~125%
- maximal isoproterenol stimulated adenylyl cyclase activity (adenylyl cyclase; transgenic membranes): 609 ± 74.7 pmol/min/mg
- maximal Penh to methacholine after acute albuterol in mice pretreated with isoproterenol ([1]; SMP8-β2AR transgenic mice, isoproterenol by osmotic minipump for three continuous days): 128±1 % of baseline
- isoproterenol-stimulated cAMP content (β2AR [4]; nontransgenic airway smooth muscle cells, 10 min, n=5): 2.05 ± 0.10 pmol/mL
- isoproterenol-stimulated cAMP, percent-stimulation over basal (β2AR [4]; nontransgenic cells): ~50%

Compound: CC(C)(C)NCC(O)c1ccc(O)c(CO)c1 (stereo not drawn) [albuterol]
- methacholine-induced increase in Penh after albuterol pretreatment ([1]; SMP8-β2AR mice, methacholine up to 80 mg/ml): no increase in Penh; also recorded: no methacholine-induced bronchoconstriction was observed
- maximal Penh to methacholine after albuterol pretreatment ([1]; SMP8-β2AR transgenic mice): 146±12 % of baseline and 138±11 % of baseline
- maximal Penh to methacholine after albuterol pretreatment ([1]; nontransgenic mice): 373±33 % of baseline
